pIC50: −log10 of the molar value. ≈ marks a conversion by molar mass, not a printed value. Like-named read-outs stand apart in the source and are kept apart here. Where a SMILES comes first, the peptide text is derived from it. Bridges are numbered along the chain shown (N, C = ends). [ ]: non-standard residue; d: D form. The star is where a group is joined. Decanoyl(3R-OH) = CCCCCCC[C@@H](O)CC(=O)*; d(aThr) = C[C@@H](O)[C@@H](N)C(=O)O; Dab = NCC[C@H](N)C(=O)O; Dhb = C/C=C(\N)C(=O)O
Key:
Penicillium notatum = assay: Disk diffusion test; type: cell-based; conditions: 10 μg/mL in DMSO/MeOH, 50 μL per 9 mm hole, 24 h 37 °C; methanol alone 10 mm
Protocol: (§1) A qualitative screen of different microorganisms was performed using a disk diffusion test. Each microorganism was plated on Mueller Hinton agar plates and 9 mm holes were punched out. The respective compounds were dissolved in the indicated solvent to yield solutions of specified concentrations. 50 μL of the respective solutions were placed in each hole. The plates were incubated for 24 h at 37° C. After incubation, the size of inhibition zones was determined.

Candida albicans = assay: Disk diffusion test; type: cell-based; conditions: 10 μg/mL in DMSO/MeOH, 50 μL per 9 mm hole, 24 h 37 °C
Protocol: as §1

[1] = tested on: Sporobolomyces salmonicolor; assay: Disk diffusion test; type: cell-based; conditions: 10 μg/mL in DMSO/MeOH, 50 μL per 9 mm hole, 24 h 37 °C; methanol alone 10 mm
Protocol: as §1

[2] = tested on: Pseudomonas aeruginosa K799/61; assay: Disk diffusion test; type: cell-based; conditions: 5 μg/mL in water, 50 μL per 9 mm hole, 24 h 37 °C
Protocol: as §1

[3] = tested on: Enterococcus faecalis (VRE) 1528; assay: Disk diffusion test; type: cell-based; conditions: 5 μg/mL in water, 50 μL per 9 mm hole, 24 h 37 °C
Protocol: as §1

Mycobacterium vaccae = assay: Disk diffusion test; type: cell-based; conditions: 5 μg/mL in water, 50 μL per 9 mm hole, 24 h 37 °C
Protocol: as §1

[4] = tested on: Staphylococcus aureus (MRSA) 134/94; assay: Disk diffusion test; type: cell-based; conditions: 5 μg/mL in water, 50 μL per 9 mm hole, 24 h 37 °C
Protocol: as §1

Bacillus subtilis = assay: Disk diffusion test; type: cell-based; conditions: 5 μg/mL in water, 50 μL per 9 mm hole, 24 h 37 °C
Protocol: as §1

[5] = tested on: Staphylococcus aureus SG 511; assay: Disk diffusion test; type: cell-based; conditions: 5 μg/mL in water, 50 μL per 9 mm hole, 24 h 37 °C
Protocol: as §1

Escherichia coli = assay: Disk diffusion test; type: cell-based; conditions: 5 μg/mL in water, 50 μL per 9 mm hole, 24 h 37 °C
Protocol: as §1

[6] = tested on: Pseudomonas aeruginosa SG 137; assay: Disk diffusion test; type: cell-based; conditions: 5 μg/mL in water, 50 μL per 9 mm hole, 24 h 37 °C
Protocol: as §1

[7] = tested on: Candida glabrata 2021-359; assay: Broth dilution method (EUCAST); type: cell-based; conditions: Nakaseomyces glabratus, 2021359; Candida glabrata 2021-359, EUCAST E.DEF 9.3.2; read-out: Result of the broth dilution method assay (MIC)
Protocol: (§2) The activity assay was performed using the broth dilution method according to the EUCAST DEFINITIVE DOCUMENT E.DEF 9.3.2. B. cinerea and A. solani were incubated according to the Methods for dilution antimicrobial susceptibility tests for bacteria that grow aerobically by the NCCLS. Keanumycin A was dissolved in DMSO.

Candida auris 2021-353 = assay: Broth dilution method (EUCAST); type: cell-based; conditions: Candidozyma auris, 2021353; Candida auris 2021-353, EUCAST E.DEF 9.3.2; read-out: Result of the broth dilution method assay (MIC)
Protocol: as §2

[8] = tested on: Candida parapsilosis ATCC 22019; assay: Broth dilution method (EUCAST); type: cell-based; conditions: Lodderomyces parapsilosis, ATCC22019; Candida parapsilosis ATCC 22019, EUCAST E.DEF 9.3.2; read-out: Result of the broth dilution method assay (MIC)
Protocol: as §2

[9] = tested on: Candida tropicalis 2021-360; assay: Broth dilution method (EUCAST); type: cell-based; conditions: 2021360; Candida tropicalis 2021-360, EUCAST E.DEF 9.3.2; read-out: Result of the broth dilution method assay (MIC)
Protocol: as §2

[10] = tested on: Scedosporium apiospermum 2016-079; assay: Broth dilution method (EUCAST); type: cell-based; conditions: 2016079; Scedosporium apiospermum 2016-079, EUCAST E.DEF 9.3.2; read-out: Result of the broth dilution method assay (MIC)
Protocol: as §2

[11] = tested on: Fusarium proliferatum 2021-361; assay: Broth dilution method (EUCAST); type: cell-based; conditions: 2021361; Fusarium proliferatum 2021-361, EUCAST E.DEF 9.3.2; read-out: Result of the broth dilution method assay (MIC)
Protocol: as §2

[12] = tested on: Aspergillus fumigatus ATCC 204305; assay: Broth dilution method (EUCAST); type: cell-based; conditions: ATCC204305; Aspergillus fumigatus ATCC 204305, EUCAST E.DEF 9.3.2; read-out: Result of the broth dilution method assay (MIC)
Protocol: as §2

[13] = tested on: Rhizopus arrhizus 2021-366; assay: Broth dilution method (EUCAST); type: cell-based; conditions: 2021366; Rhizopus arrhizus 2021-366, EUCAST E.DEF 9.3.2; read-out: Result of the broth dilution method assay (MIC)
Protocol: as §2

[14] = tested on: Botrytis cinerea SF011406; assay: Broth dilution method (NCCLS); type: cell-based
Protocol: as §2

Candida strains = conditions: against Candida strains; cited from earlier work
[15] = Stability of isolated keanumycin C; type: physicochemical; conditions: in solution or concentrated to dryness
Text: The inventors isolated keanumycin A (m/z 583.7892 [M+2H]2+ consistent with the molecular formula C49H84ClN11O19) and impure keanumycin B (m/z 575.7900 [M+2H]2+; C49H84ClN11O18), which could not be separated from an unknown metabolite (FIG. 1A). The inventors were also able to isolate keanumycin C (m/z 591.7866 [M+2H]2+; C49H84ClN11O20). […] Therefore, a detailed NMR analysis was only performed on keanumycin A. Important correlations in the ^1H, ^1H-correlation spectroscopy (COSY) experiment disclosed the presence of a 3,4-dihydroxylated linear fatty acid, which is a rare motif in NRLPs and only described for two other members of the syringomycin family (FIG. 2A). […] Saponification of keanumycin A under mild conditions led to the expected dechlorinated and linear lipopeptide 1, whose planar structure was confirmed by further HRMS2 experiments.

C. albicans = assay: Membrane permeabilization assay using SYTOX Green; type: cell-based, Candida albicans; conditions: 4 μg mL-1 in 1% DMSO
Text: Only isolated cells are stained, which can be explained by the fact that the dye can also be used to distinguish dead from live cells. Scale bar=100 μm.
To finally examine if keanumycin A is a membrane-active compound, the inventors performed a membrane permeabilization assay using SYTOX Green (FIG. 6). As a cell-impermeant dye, SYTOX Green enters the cell upon loss of membrane integrity and binds to DNA, which results in fluorescently stained cells. […] Thus, the keanumycins are membrane-active compounds that disturb the structure of the fungal […].

Q: Which results are given for `C[C@@H]1[C@H](O)[C@@H](C)/C=C/C=C/C=C/C=C/C=C/C=C/C=C/[C@H](O[C@@H]2O[C@H](C)[C@@H](O)[C@H](N)[C@@H]2O)C[C@@H]2O[C@](O)(C[C@@H](O)C[C@@H](O)[C@H](O)CC[C@@H](O)C[C@@H](O)CC(=O)O[C@H]1C)C[C@H](O)[C@H]2C(=O)O` [Amphotericin B, reference compound]?
A: Inhibition area diameter (Penicillium notatum): 18 mm; Inhibition area diameter (Candida albicans): 21 mm; Inhibition area diameter [1]: 18 mm

Q: What does the source list for `O=C(O)c1cn(C2CC2)c2cc(N3CCNCC3)c(F)cc2c1=O` [Ciprofloxacin, reference compound]?
A: Inhibition area diameter [2]: 28 mm; Inhibition area diameter [3]: 16 mm; Inhibition area diameter (Mycobacterium vaccae): 22 mm; Inhibition area diameter [4]: 0 mm; Inhibition area diameter (Bacillus subtilis): 29 mm; Inhibition area diameter [5]: 17 mm; Inhibition area diameter (Escherichia coli): 26 mm; Inhibition area diameter [6]: 26 mm

Q: Which results are given for `OC(Cn1cncn1)(Cn1cncn1)c1ccc(F)cc1F` [Fluconazol, reference compound]?
A: MIC [7]: 2 µg/mL (≈ 6.53 µM); MIC (Candida auris 2021-353): < 64 µg/mL; MIC [8]: 2 µg/mL (≈ 6.53 µM); MIC [9]: 64 µg/mL (≈ 209 µM)

Q: Which results are given for `CC[C@@H]([C@H](C)O)n1ncn(-c2ccc(N3CCN(c4ccc(OC[C@@H]5CO[C@@](Cn6cncn6)(c6ccc(F)cc6F)C5)cc4)CC3)cc2)c1=O` [Posaconazol, reference compound]?
A: MIC [10]: > 8 µg/mL; MIC [7]: 0.25 µg/mL (≈ 0.357 µM); MIC (Candida auris 2021-353): 0.06 µg/mL (≈ 0.0856 µM); MIC [11]: > 8 µg/mL; MIC [12]: 0.125 µg/mL (≈ 0.178 µM); MIC [8]: 0.06 µg/mL (≈ 0.0856 µM); MIC [9]: 0.125 µg/mL (≈ 0.178 µM); MIC [13]: 4 µg/mL (≈ 5.71 µM)

Q: For `C[C@@H](c1ncncc1F)[C@](O)(Cn1cncn1)c1ccc(F)cc1F` [Voriconazol, reference compound], which MIC [10] is on record?
A: Its MIC is 1 µg/mL (≈ 2.86 µM).

Q: And the MIC [7]?
A: Its MIC is 0.06 µg/mL (≈ 0.172 µM).

Q: What about the MIC (Candida auris 2021-353) of the same molecule?
A: The MIC was 1 µg/mL (≈ 2.86 µM).

Q: And the MIC [11]?
A: The MIC was 8 µg/mL (≈ 22.9 µM).

Q: And the MIC [12]?
A: The MIC was 0.5 µg/mL (≈ 1.43 µM).

Q: What about the MIC [8] of the same molecule?
A: The MIC was 0.03 µg/mL (≈ 0.0859 µM).

Q: And the MIC [9]?
A: The MIC was 1 µg/mL (≈ 2.86 µM).

Q: What about the MIC [13] of the same molecule?
A: Its MIC is greater than 8 µg/mL.

Q: For `C/C=C(\NC(=O)[C@@H](CC(C)C)NC(=O)[C@@H](C)NC(=O)[C@H](NC(=O)[C@@H](C)NC(=O)[C@@H](CO)NC(=O)[C@H](NC(=O)[C@H](C)NC(=O)[C@@H](C)NC(=O)[C@@H](C)NC(=O)[C@H](NC(=O)[C@H](NC(=O)[C@H]1CCCN1C(=O)/C(=C/C)NC(=O)C[C@H](O)CCCCCCC)[C@H](C)CC)C(C)C)C(C)C)C(C)C)C(=O)N[C@H]1C(=O)N[C@@H](C)C(=O)N[C@@H](CCN)C(=O)N[C@H](CO)C(=O)N[C@@H](Cc2ccccc2)C(=O)O[C@@H]1C` [jessenipeptin, reference compound] ({Decanoyl(3R-OH)}-[Dhb][dP][dI][dV][dA][dA]A[dV][dS][dA][dV][dA][dL][Dhb][d(aThr)]A[Dab][dS]F; ester 15-C), which MIC ([14]; B. cinerea) is on record?
A: The MIC was 10 µg/mL.

Q: What about the MIC ([14]; Botrytis cinerea, NCCLS, 22 °C, read-out: MIC) of the same molecule?
A: The MIC was 5.2 µM.

Q: With hassallidin D as the molecule, how does the pIC50 (Candida strains) read?
A: Its pIC50 is 6.00 to 6.54.

Q: With keanumycin C as the molecule, how does the stability [15] read?
A: The stability was “slowly degrades in solution or when concentrated to dryness”.

Q: Which “membrane permeabilization (SYTOX Green staining)” value (C. albicans) does the source give for tunicamycin [reference compound] here?
A: The value was “membrane integrity of C. albicans is not disturbed”.

Q: What about the “membrane permeabilization (SYTOX Green staining)” value (C. albicans; listed as Tunicamycin) of the same molecule?
A: The value was “did not cause a loss of membrane integrity”.

Reference: US20240391958A1, “KEANUMYCINS AND USES THEREOF IN MEDICINE AND PLANT PROTECTION” (Leibniz-Institut für Naturstoff-Forschung und …, priority 2023, published 2024)
